The source of these data is ChEMBL document CHEMBL1857833, “Screening and optimization of specific chemical series against human African Trypanosomiasis (HAT)”.

A short description of data set [1]: DNDI: Cytotoxicity against L929 mouse fibroblasts, 72 hour. Type of data set: toxicity, cell-based. The settings on record: mouse, L929 mouse fibroblasts.
A further data set has as its system Trypanosoma brucei. Description: DNDI: Inhibition of Human African Trypanosomiasis, SBRI 427, in vitro. Type of data set: functional, organism-based. The settings on record: Trypanosoma brucei, SBRI 427; read-out: IC50.
The conditions of data set [2]: mouse, microsomes, 1 µM.
Description: DNDI: in vitro intrinsic clearance in mouse liver microsomes at a concentration of 1uM
The nature of a further data set: in vitro. The settings on record: mouse, liver microsomes, t (1 / 2). For orientation: Liver microsomes are a subcellular fraction often used to study metabolism.
The nature of data set [3]: DNDI: Cytotoxicity against L929 mouse fibroblasts, CYTO-SP, 24 hour. Type of data set: toxicity, cell-based. Conditions: mouse, L929 mouse fibroblasts.

Molecules are shown by their SMILES. Converted amounts (≈) assume the structure as drawn. Some results are limits rather than exact numbers.

Description for in vitro: DNDI: half life in mouse liver microsomes at a concentration of 1uM

A word on the IC50: it is the concentration at which inhibition is half-maximal. What is called half-life is the time needed for the level to fall by half in the phase considered. Higher therefore signals slow loss. Compound `Cc1ccc(Cc2ccccc2/C(=N/O)NC2CCCCC2)cc1` returned a half-inhibitory concentration (IC50) at 72 h in data set [1] of 3.48 µg/mL (≈ 10.8 µM). Also, in the data set on Trypanosoma brucei, the concentration for half-maximal inhibition (IC50) came out at 1.17 µg/mL (≈ 3.63 µM). In addition, the CLint in vitro in data set [2] turned out to be 318 µL/min/mg. The compound also returned a half-life at 1 µM in the data set “in vitro” of 3 min.
Regarding `CCOCCCNC(c1nc(-c2ccccc2)c(N2CCCCC2)o1)C(C)CC` (stereo unspecified), in data set [1], half-maximal inhibition (IC50 at 72 h) required 4.44 µg/mL (≈ 11.1 µM). For the same compound, in the data set with Trypanosoma brucei, the IC50 is 2.72 µg/mL (≈ 6.81 µM). The CLint in vitro in data set [2] was determined as 255 µL/min/mg. In “in vitro”, this compound had a half-life at 1 µM of 3 min.
As for `CCCCc1ccc(-c2nc(CNCC)co2)cc1`, it took 5.42 µg/mL (≈ 21 µM) to reach half-maximal inhibition in data set [1] (IC50 at 72 h). Moreover, in the data set with Trypanosoma brucei, the half-maximal inhibitory concentration (IC50) was 0.89 µg/mL (≈ 3.44 µM). Also, the CLint in vitro in data set [2] came out at 76 µL/min/mg. Besides, the half-life at 1 µM in “in vitro” was 11 min.
Taken in the same sequence, the figures for `CCCCCC(C)NCc1coc(-c2ccc(OCCOCC)cc2)n1` (stereo unspecified) were 5.78 µg/mL (≈ 16 µM), 1.57 µg/mL (≈ 4.36 µM), 42 µL/min/mg and 20 min.
On the same counts, the results for `CCC(C)C(NCc1ccco1)c1nc(-c2ccccc2)c(N2CCCCC2)o1` (stereo unspecified) are > 10 µg/mL, 4.9 µg/mL (≈ 12.5 µM), 206 µL/min/mg and 4 min.
On to `C[C@@H]1[C@H]2C[C@@H](C[C@H]1NCc1coc(-c3sccc3Cl)n1)C2(C)C`, for which the IC50 at 24 h in data set [3] is > 50 µg/mL. In addition, the IC50 at 72 h in data set [1] is > 50 µg/mL. In the data set with Trypanosoma brucei, the 50% inhibitory concentration (IC50) is > 5 µg/mL.
On to `O/N=C(/NC1CCCCC1)c1cccnc1Oc1ccc(F)cc1`, for which, in data set [1], the half-maximal inhibitory concentration (IC50) at 72 h was > 10 µg/mL. Moreover, the IC50 with Trypanosoma brucei stood at 1.4 µg/mL (≈ 4.25 µM). The compound also gave a CLint in vitro in data set [2] of 389 µL/min/mg. This compound also displayed a half-life at 1 µM in the data set “in vitro” of 2 min.
On to `Clc1ccsc1-c1nc(CNC2CCCCCC2)co1`, for which the half-inhibitory concentration (IC50) at 24 h in data set [3] was > 50 µg/mL. For the same compound, half-maximal inhibition in data set [1] (IC50 at 72 h) was put at 11.8 µg/mL (≈ 38.1 µM). In addition, in the data set on Trypanosoma brucei, the IC50 is > 5 µg/mL.
As for `c1cc(-c2nc(CNC3CCCCCC3)co2)ccc1OC1CCCCC1`, the half-inhibitory concentration (IC50) at 72 h in data set [1] came out at 1.29 µg/mL (≈ 3.5 µM). In addition, the IC50 in the data set with Trypanosoma brucei amounted to 0.43 µg/mL (≈ 1.17 µM). The CLint in vitro in data set [2] stood at 11 µL/min/mg. Further, the half-life at 1 µM in “in vitro” amounted to 78 min.
On the same counts, the results for `O/N=C(/NC1CCCCC1)c1cccnc1Oc1ccc(Cl)cc1` are > 10 µg/mL, 0.93 µg/mL (≈ 2.69 µM), 367 µL/min/mg and 2 min.
On the same counts, the results for `COc1ccccc1CNC(CCc1ccccc1)c1nc(-c2ccccc2)c(N2CCOCC2)o1` (stereo unspecified) are > 10 µg/mL, 4.15 µg/mL (≈ 8.58 µM), 344 µL/min/mg and 2 min.
On the same counts, the results for `CCCCCC(C)NCc1coc(-c2cccc(Oc3ccccc3)c2)n1` (stereo unspecified) are 1.76 µg/mL (≈ 4.83 µM), 1.14 µg/mL (≈ 3.13 µM), 14 µL/min/mg and 63 min.
The compound `O/N=C(\NC1CCCCC1)c1ccccc1Cc1ccccc1` came in with an IC50 at 72 h in data set [1] of 4.57 µg/mL (≈ 14.8 µM). The IC50 in the data set with Trypanosoma brucei stood at 1.19 µg/mL (≈ 3.86 µM). In addition, the CLint in vitro in data set [2] was 381 µL/min/mg. This compound also registered a half-life at 1 µM in “in vitro” of 2 min.
Turning to `CCCCc1ccc(-c2nc(CNCc3cccnc3)co2)cc1`, in data set [1], the IC50 at 72 h was > 10 µg/mL. Also, the concentration for half-maximal inhibition (IC50) in the data set with Trypanosoma brucei was > 5 µg/mL. The compound also had a CLint in vitro in data set [2] of 44 µL/min/mg. In the data set “in vitro”, this compound displayed a half-life at 1 µM of 19 min.
Taken in the same sequence, the figures for `CCCCc1ccc(-c2nc(CN3CCOCC3)co2)cc1` were > 10 µg/mL, > 5 µg/mL, 348 µL/min/mg and 2 min.
As to `CCCCCC(C)NCc1coc(-c2ccc(C3CCCCC3)cc2)n1` (stereo unspecified), in data set [1], the half-maximal inhibitory concentration (IC50) at 72 h came out at 0.67 µg/mL (≈ 1.89 µM). The IC50 in the data set on Trypanosoma brucei is 0.22 µg/mL (≈ 0.621 µM). Also, in data set [2], the CLint in vitro was 4 µL/min/mg. This compound displayed a half-life at 1 µM in the data set “in vitro” of 232 min.
On the same counts, the results for `CCCCCC(C)NCc1coc(-c2ccc(Oc3ccc(OC)cc3)cc2)n1` (stereo unspecified) are 5.61 µg/mL (≈ 14.2 µM), 1.29 µg/mL (≈ 3.27 µM), 25 µL/min/mg and 34 min.
On the same counts, the results for `CCCCCC(C)NCc1coc(-c2ccc(OC3CCC3)cc2)n1` (stereo unspecified) are 2.36 µg/mL (≈ 6.89 µM), 0.88 µg/mL (≈ 2.57 µM), 9 µL/min/mg and 98 min.
In the case of `COc1ccc(/C(=N/O)Nc2cccc(-c3ccccc3)c2)cc1`, the IC50 at 72 h in data set [1] was > 10 µg/mL. For the same compound, the CLint in vitro in data set [2] was determined as 66 µL/min/mg. The same compound had a half-life at 1 µM in “in vitro” of 13 min.
In the case of `Cc1cccc(CNC(c2ccccc2)c2nc(Cc3ccccc3)c(N3CCOCC3)o2)c1` (stereo unspecified), the 50% inhibitory concentration (IC50) at 72 h in data set [1] is > 10 µg/mL. The IC50 in the data set on Trypanosoma brucei is 5 µg/mL (≈ 11 µM). In data set [2], the CLint in vitro worked out at 217 µL/min/mg. The same compound came in with a half-life at 1 µM in the data set “in vitro” of 4 min.
Taken in the same sequence, the figures for `CCCCCC(C)NCc1coc(-c2ccc(Oc3ccc(Cl)cc3)cc2)n1` (stereo unspecified) were 2.07 µg/mL (≈ 5.19 µM), 0.34 µg/mL (≈ 0.852 µM), 3 µL/min/mg and 313 min.
